Source: ChEMBL document CHEMBL1201862, “PubChem BioAssay data set” (2004)
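Test compounds were applied to cells in 96-well plates for 48 hours at 5 doses. GI50 = concentration required for 50% inhibition of growth.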 The source made the active and inactive calls. Cut-off read from the data, not from the text of the source: active = GI50 up to about 1.1 µM and inactive = higher.

Tests used:
Assay in all cases: NCI-60 cell line screen, 48 h
U-251 = test system: U-251
MOLT-4 = test system: MOLT-4
OVCAR-4 = test system: OVCAR-4
TK-10 = test system: TK-10
A498 = test system: A498
KM12 = test system: KM12
MDA-MB-435 = test system: MDA-MB-435
MCF7 = test system: MCF7
HOP-92 = test system: HOP-92
SF-295 = test system: SF-295
CAKI-1 = test system: CAKI-1
HCT-15 = test system: HCT-15
OVCAR-5 = test system: OVCAR-5
SF-539 = test system: SF-539
PC-3 = test system: PC-3
OVCAR-8 = test system: OVCAR-8
HCT-116 = test system: HCT-116
K562 = test system: K562
HL-60 = test system: HL-60
HT-29 = test system: HT-29

SMILES | GI50 (U-251) | GI50 (MOLT-4) | GI50 (OVCAR-4) | GI50 (TK-10) | GI50 (A498) | GI50 (KM12) | GI50 (MDA-MB-435) | GI50 (MCF7) | GI50 (HOP-92) | GI50 (SF-295) | GI50 (CAKI-1) | GI50 (HCT-15) [µM] | GI50 (OVCAR-5) | GI50 (SF-539) | GI50 (PC-3) | GI50 (OVCAR-8) | GI50 (HCT-116) | GI50 (K562) | GI50 (HL-60) | GI50 (HT-29)
O=C(NCC(O)COc1ccccc1)c1ccccc1O (configuration not stated) | > 100 µM (inactive) | 14.5 µM (inactive) | > 100 µM (inactive) | > 100 µM (inactive) | > 100 µM (inactive) | > 100 µM (inactive) | > 100 µM (inactive) | > 100 µM (inactive) | 86.1 µM (inactive) | > 100 µM (inactive) | > 100 µM (inactive) | > 100 | > 100 µM (inactive) | > 100 µM (inactive) | 66.1 µM (inactive) | > 100 µM (inactive) | > 100 µM (inactive) | > 100 µM (inactive) |  | 
OCC1CCCC(n2cnc3c(S)ncnc32)O1 (configuration not stated) | > 100 µM (inactive) |  | > 100 µM (inactive) | > 100 µM (inactive) | > 100 µM (inactive) | > 100 µM (inactive) | > 100 µM (inactive) | > 100 µM (inactive) | > 100 µM (inactive) | > 100 µM (inactive) | > 100 µM (inactive) | > 100 | > 100 µM (inactive) |  | > 100 µM (inactive) | > 100 µM (inactive) | > 100 µM (inactive) | > 100 µM (inactive) | 0.0252 µM (active) | > 100 µM (inactive)
c1ccc(CCN2CCOCC2)nc1 | > 100 µM (inactive) |  | > 100 µM (inactive) | > 100 µM (inactive) | > 100 µM (inactive) | > 100 µM (inactive) | > 100 µM (inactive) | > 100 µM (inactive) | > 100 µM (inactive) | > 100 µM (inactive) | > 100 µM (inactive) | > 100 | > 100 µM (inactive) |  | > 100 µM (inactive) | > 100 µM (inactive) | > 100 µM (inactive) | > 100 µM (inactive) | > 100 µM (inactive) | > 100 µM (inactive)
CC(C)(C)c1cc2c(c(C(C)(C)C)c1O)CC(=O)O2 | 41.9 µM (inactive) | 35.1 µM (inactive) | 27.7 µM (inactive) | 30.4 µM (inactive) | 32.1 µM (inactive) | 20.7 µM (inactive) | 27 µM (inactive) | 35.6 µM (inactive) | < 0.01 µM (active) | 32.2 µM (inactive) |  | 45.9 | 71.6 µM (inactive) | 23.2 µM (inactive) | 27.2 µM (inactive) | 32.2 µM (inactive) | 30.1 µM (inactive) | 34 µM (inactive) | 34.6 µM (inactive) | 28.3 µM (inactive)
CCCCCCOc1ccc(NC2=C(Cl)C(=O)c3cccnc3C2=O)cc1 | 2.29 µM (inactive) | 1.87 µM (inactive) |  | 3.3 µM (inactive) | > 10 µM (inactive) | 1.61 µM (inactive) | 1.75 µM (inactive) | 1.21 µM (inactive) | 2.02 µM (inactive) | 3.65 µM (inactive) |  | 1.79 | 2.4 µM (inactive) | 2.09 µM (inactive) | 2.41 µM (inactive) | 2.03 µM (inactive) | 0.895 µM (active) | 1.39 µM (inactive) | 1.15 µM (inactive) | 2.62 µM (inactive)
COc1ccccc1N/C(=C\C(=O)C(=O)NC12CC3CC(CC(C3)C1)C2)c1ccccc1 | > 10 µM (inactive) | > 10 µM (inactive) | 9.82 µM (inactive) | > 10 µM (inactive) | > 10 µM (inactive) | > 10 µM (inactive) | 7.21 µM (inactive) | > 10 µM (inactive) |  | > 10 µM (inactive) | > 10 µM (inactive) | > 10 | > 10 µM (inactive) | > 10 µM (inactive) | 7.55 µM (inactive) | > 10 µM (inactive) |  | > 10 µM (inactive) | > 10 µM (inactive) | > 10 µM (inactive)
NC(=O)CC[C@H]1C(=O)N=C(N)N1C(=O)OCc1ccccc1 | > 100 µM (inactive) | > 100 µM (inactive) | > 100 µM (inactive) | > 100 µM (inactive) | > 100 µM (inactive) | > 100 µM (inactive) | > 100 µM (inactive) | > 100 µM (inactive) |  | > 100 µM (inactive) | > 100 µM (inactive) | > 100 | > 100 µM (inactive) |  | > 100 µM (inactive) | > 100 µM (inactive) | > 100 µM (inactive) | > 100 µM (inactive) | > 100 µM (inactive) | > 100 µM (inactive)
COc1ccc2c(c1)c1c(n2CCN(C)C)-c2cccc(OC)c2CC1 | 11.6 µM (inactive) | 7.14 µM (inactive) | 15.8 µM (inactive) | 19.2 µM (inactive) | 19.1 µM (inactive) | 11.2 µM (inactive) | 12 µM (inactive) | 13.2 µM (inactive) | 17.7 µM (inactive) | 13.5 µM (inactive) | 13.1 µM (inactive) | 15.3 | 15.7 µM (inactive) |  | 11.6 µM (inactive) | 18.7 µM (inactive) | 13.3 µM (inactive) | 2.02 µM (inactive) |  | 3.3 µM (inactive)
CNc1ncnc2c1nc(NC1CCCC1)n2C1OC(CO)C(O)C1O (configuration not stated) | > 100 µM (inactive) | > 100 µM (inactive) | > 100 µM (inactive) | > 100 µM (inactive) | > 100 µM (inactive) | > 100 µM (inactive) | > 100 µM (inactive) | > 100 µM (inactive) | > 100 µM (inactive) | > 100 µM (inactive) | > 100 µM (inactive) | > 100 | > 100 µM (inactive) | > 100 µM (inactive) | > 100 µM (inactive) | > 100 µM (inactive) | > 100 µM (inactive) |  |  | > 100 µM (inactive)
CN1C(=O)C(CC=O)(C(C)(C)C)c2ccccc21 (configuration not stated) | > 100 µM (inactive) | 56.8 µM (inactive) | > 100 µM (inactive) |  | > 100 µM (inactive) | > 100 µM (inactive) | 30.8 µM (inactive) | 69.7 µM (inactive) | 69 µM (inactive) | > 100 µM (inactive) | 54.7 µM (inactive) | 90.6 | > 100 µM (inactive) |  | > 100 µM (inactive) |  | 76.4 µM (inactive) | 91.6 µM (inactive) | > 100 µM (inactive) | 
COC(=O)c1cc(=O)nc2sc3cccc(C)c3n12 | 22.2 µM (inactive) | 28.6 µM (inactive) | > 100 µM (inactive) | > 100 µM (inactive) |  | > 100 µM (inactive) | 42 µM (inactive) | 52.5 µM (inactive) | 30.2 µM (inactive) | 67 µM (inactive) | 24.6 µM (inactive) | 43 | 38 µM (inactive) | 34.1 µM (inactive) | 21 µM (inactive) | 20.9 µM (inactive) | 28.8 µM (inactive) | 30.3 µM (inactive) | 19 µM (inactive) | 28.5 µM (inactive)
OCc1c2c(cc3c1CC1(C3)Cc3cc4c(c(CO)c3C1)CCC4)CCC2 | 15.8 µM (inactive) | 9.95 µM (inactive) | 10.1 µM (inactive) | 19.6 µM (inactive) | 16.4 µM (inactive) | 16.4 µM (inactive) | 20.6 µM (inactive) | 23.5 µM (inactive) | 18.5 µM (inactive) | 12.4 µM (inactive) |  | 18 | 19.8 µM (inactive) | 17.4 µM (inactive) | 15.3 µM (inactive) | 18.6 µM (inactive) | 13.6 µM (inactive) | 7.35 µM (inactive) | 5.73 µM (inactive) | 17.1 µM (inactive)
Cc1c2c(c(C)n1-c1ccccc1)C(=O)N(CCN1CCN(c3cccc(C(F)(F)F)c3)CC1)C2=O | 31.3 µM (inactive) | 6.03 µM (inactive) | 7.35 µM (inactive) | > 100 µM (inactive) | > 100 µM (inactive) | 30.5 µM (inactive) | > 100 µM (inactive) | 7.71 µM (inactive) | > 100 µM (inactive) | 50.1 µM (inactive) | 84.7 µM (inactive) | 17.7 | > 100 µM (inactive) | 87.1 µM (inactive) | 18.8 µM (inactive) | 76.4 µM (inactive) | 8.36 µM (inactive) | 5.92 µM (inactive) |  | 10.6 µM (inactive)
CC(NCc1c(O)ccc2ccc(=O)oc12)C(=O)O (configuration not stated) | > 100 µM (inactive) | > 100 µM (inactive) | > 100 µM (inactive) | > 100 µM (inactive) |  | > 100 µM (inactive) | > 100 µM (inactive) | > 100 µM (inactive) | > 100 µM (inactive) | > 100 µM (inactive) | > 100 µM (inactive) | > 100 | > 100 µM (inactive) | > 100 µM (inactive) | > 100 µM (inactive) | > 100 µM (inactive) | > 100 µM (inactive) | > 100 µM (inactive) | > 100 µM (inactive) | > 100 µM (inactive)
COc1cc2c3c4[n+](cc2c(OC)c1OC)CCC4CCC3 (configuration not stated) | 53.8 µM (inactive) | > 100 µM (inactive) | > 100 µM (inactive) | > 100 µM (inactive) | > 100 µM (inactive) | 47.4 µM (inactive) | > 100 µM (inactive) | 75.2 µM (inactive) | > 100 µM (inactive) | > 100 µM (inactive) | > 100 µM (inactive) | > 100 | > 100 µM (inactive) | > 100 µM (inactive) | > 100 µM (inactive) | > 100 µM (inactive) | > 100 µM (inactive) | 17.9 µM (inactive) |  | > 100 µM (inactive)
CC1(C)C2CC(=O)C1(C)C(OCc1ccccc1)C2 (configuration not stated) | 48.3 µM (inactive) | 16.3 µM (inactive) |  | 23.4 µM (inactive) | > 100 µM (inactive) | 60.8 µM (inactive) | 47 µM (inactive) | 64.7 µM (inactive) |  | 68.7 µM (inactive) | 40.6 µM (inactive) | 26.8 | 29.4 µM (inactive) | > 100 µM (inactive) | 34.4 µM (inactive) | > 100 µM (inactive) | 25.1 µM (inactive) | 22.2 µM (inactive) | 24.4 µM (inactive) | 40.6 µM (inactive)
